The first data set concerns the target T1, rPpAChE1 (Phlebotomus papatasi, UniProt M1F887).
T1 construct: gene AChE; cell lysate assayed
Put plainly: biochemical.
For `CNC(=O)Oc1cccc2c1OC(C)(C)C2` [Carbofuran], the 50% inhibitory concentration (IC50) (usually the point on the concentration scale where inhibition reaches its midpoint) was 0.024 µM. The molecule `CNC(=O)Oc1ccc2c(c1)[C@]1(C)CCN(C)[C@@H]1N2C` [Eserine] gave an IC50 of 0.0032 µM. This IC50 lies about 7.5-fold lower than the previous one. On the same count and under the same terms, with `CC[n+]1c(-c2ccccc2)c2cc(N)ccc2c2ccc(N)cc21` [Ethidium Bromide] the figure was 17.1 µM; with `CCOC(=O)CC(SP(=O)(OC)OC)C(=O)OCC` (stereo not drawn) [Malaoxon], 0.00436 µM. Still for that read-out and setting: with `CNC(=O)Oc1ccccc1OC(C)C` [Propoxur] the figure was 0.22 µM; with `Nc1c2c(nc3ccccc13)CCCC2` [Tacrine], 0.067 µM; with `COc1cc2c3cc1Oc1cc(ccc1O)C[C@@H]1c4c(cc(OC)c(O)c4Oc4ccc(cc4)C[C@@H]3N(C)CC2)CC[N+]1(C)C` [Tubocurarine], 143 µM.

`CNC(=O)Oc1cccc(C(C)(C)C)c1` [compound 2, 3-(tert-butyl)phenyl methylcarbamate]: the IC50 is 0.036 µM.

`CCC(C)n1cc(OC(=O)NC)cn1` (stereo not drawn) [compound 3, 1-(sec-butyl)-1H-pyrazol-4-yl methylcarbamate]: the concentration for half-maximal inhibition (IC50) is 0.013 µM. `CNC(=O)Oc1cnn(CCC(C)C)c1` [compound 4, 1-isopentyl-1H-pyrazole-4-yl methylcarbamate] returned an IC50 of 0.075 µM. Turning to `CNC(=O)Oc1cnn(CC(C)C)c1` [compound 5, 1-isobutyl-1H-pyrazol-4-yl methylcarbamate], 0.076 µM corresponded to half-maximal inhibition (IC50).

For another data set, the system named is CC(=O)SCC[N+](C)(C)C. The experiment in a line: modified Ellman assay. It counts as biochemical, Phlebotomus papatasi. (In general: DTNB colorimetry detects thiols as they appear.)
On to rPpAChE1 (Phlebotomus papatasi), for which the Km (in general, the substrate concentration at which the rate is half of its maximum) came out at 24 µM.

These data come from paper PMC4268798, “Acetylcholinesterase of the sand fly, Phlebotomus papatasi (Scopoli): construction, expression and biochemical properties of the G119S orthologous mutant” (Parasites & Vectors, 2014).
